Data published in patent publication US7282348B2, “Kit for measuring cytotoxicity of a test agent” (Promega Corporation, priority 2002, dated 2007).

Tested on: L929 cells
Test: Cytotoxicity of TNFα measured by LDH release (resazurin/diaphorase fluorescence)
Type: cell-based, mouse
Details: 20 hours incubation, in the presence of actinomycin D 1 μg/ml
Protocol: A reagent solution was prepared combining a lyophilized substrate mixture with the assay buffer containing resazurin, and all of the ingredients required to measure the release of LDH from dead cells. The buffer solvent used to reconstitute the lyophilized substrate mixture was designed so that when it is used to reconstitute the mixture, the resulting solution has an osmolarity that is compatible with living cells. That is, the resulting solution was isotonic with the cells. When used to reconstitute the lyophilized substrate mix, the reagent solution contained:
L929 cells were cultured in F-12/DME with 10% FBS and serially-diluted in a microtiter plate to yield duplicate wells containing approximately 0, 1562, 3125, 6250, 12,500, 25,000, and 50,000 cells per well, in 90 μl total volume. Cells were incubated at 37° C. for sufficient time to allow attachment (about 1.5 hours). […] The fluorescence of each well was then measured (excitation 560 nm, emission 590 nm).
L929 cells (2000 cells/well) were prepared using a 384-well tissue culture plate in F-12/DME medium supplemented with 10% horse serum. […] Fluorescence was then determined at 560 nm excitation and 590 nm emission.

Question: Which results are given for TNFα?
Answer: concentration at or above which fluorescence remained essentially constant (all of the cells lysed): about 0.125 ng/ml; observed fluorescence (560 nm excitation, 590 nm emission) as a measure of cell lysis (TNF concentrations from zero to about 0.125 ng/ml): rose in a TNFα dose-dependent fashion
